The text below walks through data of article PMC7176418 (Science Advances, 2020).

Holding throughout (experiment): biolayer interferometry
Common to all, as to format: binding
Background: Biolayer interferometry detects binding as a change in optical thickness at a sensor tip.

The target in experiment [1] is Snail (Homo sapiens, UniProt O95863, R174A).
The target of experiment [2] is Snail (Homo sapiens, UniProt O95863).
The target of the next experiment is T1, Slug (Snail2) (Homo sapiens, UniProt O43623).
T1 sequence (O43623 1-268): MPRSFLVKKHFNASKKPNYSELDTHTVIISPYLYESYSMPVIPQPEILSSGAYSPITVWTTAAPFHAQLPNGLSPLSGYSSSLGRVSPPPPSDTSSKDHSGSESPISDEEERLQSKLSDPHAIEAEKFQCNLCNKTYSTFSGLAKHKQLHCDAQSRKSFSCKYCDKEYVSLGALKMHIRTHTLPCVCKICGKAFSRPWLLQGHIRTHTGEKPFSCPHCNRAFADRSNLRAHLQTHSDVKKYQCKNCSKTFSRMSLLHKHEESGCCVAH

A word on the Kd: it is the constant that tells how readily two partners part at equilibrium. The low end stands for a tighter complex, the high end for a looser complex.

Chain of Snail (Homo sapiens, UniProt O95863) (O95863 whole entry): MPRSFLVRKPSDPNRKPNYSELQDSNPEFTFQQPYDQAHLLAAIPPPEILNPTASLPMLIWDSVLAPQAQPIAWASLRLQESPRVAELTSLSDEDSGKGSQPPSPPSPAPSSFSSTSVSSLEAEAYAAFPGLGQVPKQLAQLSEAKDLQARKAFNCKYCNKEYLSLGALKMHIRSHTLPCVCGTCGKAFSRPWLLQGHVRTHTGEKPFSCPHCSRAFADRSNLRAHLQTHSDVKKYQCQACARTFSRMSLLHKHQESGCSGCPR
Chain of Snail (Homo sapiens, UniProt O95863, R174A) (O95863 whole entry R174A): as the sequence (O95863 whole entry) above, with R174A counted along it

In the case of `Cc1cc(Nc2nc(SCc3ccc(C(=O)Nc4ccc(F)cc4N)cc3)nn3cccc23)n[nH]1` [CYD19], the Kd was 3000 nM on Snail [1], 180 nM at Snail [2] and 600 nM on Slug (Snail2).
